Experimental data taken from article PMC10780275, “Evaluation of Anti-Trypanosoma cruzi Activity of Chemical Constituents from Baccharis sphenophylla Isolated Using High-Performance Countercurrent Chromatography” (Molecules, 2023).
Where two headings read alike, the source gives them in different places.

Legend:
T. cruzi trypomastigote = assay: Activity against trypomastigote forms of T. cruzi (resazurin viability, 24 h); format: cell-based, Trypanosoma cruzi (Y strain); details: trypomastigotes, serial dilutions 1.7 to 150 μM; for EC50: Trypanosoma cruzi, read-out: T. cruzi Trypomastigote EC50 (μM) ± SD
Description: (§1) NCTC cells (clone 929, ATCC) were cultured in RPMI-1640 supplemented with 10% of fetal bovine serum (FBS), at 37 °C within a 5% CO2-humidified incubator. To collect peritoneal macrophages, the abdominal cavity of female BALB/c mice was rinsed with an RPMI-1640 medium, containing 10% FBS. These macrophages were then cultured overnight at 37 °C in a 5% CO2-humidified incubator. Trypanosoma cruzi trypomastigotes (Y strain) were maintained within Rhesus monkey kidney epithelial cells (LLC-MK2) cells using an RPMI-1640 medium supplemented with 2% FBS, and the incubation took place at 37 °C with 5% CO2 and humidity.
Tests of the activity from compounds 1–8 against the trypomastigote form of T. cruzi was performed, according to procedures previously reported. Trypomastigotes, in a concentration of 1 × 10^6 parasites/well, were seeded in 96-well plates and incubated with the tested compounds, alongside the standard drug benznidazole, in serial dilutions ranging from 1.7 to 150 μM, for 24 h at 37 °C in a 5% CO2 incubator. Subsequently, 20 μL of 10% resazurin was added, in order to determine cell viability. Absorbance was read in a plate spectrofluorometer Filter Max F5 Multi-Mode Microplate Reader at 570 nm. Untreated cells were used as negative controls, and cells treated with benznidazole were used as positive controls. The 50% effective concentration (EC50) against trypomastigote forms was determined by the regression of a sigmoid dose–response curve expressed in μM.
(§2) The CC50 and EC50 values were derived through the analysis of sigmoidal dose–response curves using GraphPad Prism 6.0 software. The samples were subjected to duplicate testing, and the experiments were replicated a minimum of two times.

T. cruzi amastigote = assay: Activity against intracellular amastigotes of T. cruzi within infected macrophages (Giemsa, light microscope, 48 h); format: cell-based, Trypanosoma cruzi (Y strain); details: for EC50: Trypanosoma cruzi, Peritoneal macrophage, in Mus musculus, read-out: T. cruzi Amastigote EC50 (μM) ± SD
Text: The experimental animals were sourced from the animal breeding facility located at Instituto Adolfo Lutz in São Paulo State, Brazil. Peritoneal macrophages were extracted from female BALB/c mice for intracellular experiments, while male BALB/c mice were utilized to sustain T. cruzi. These animals were provided unlimited access to both water and food, residing in sterilized enclosures within a meticulously regulated environment. All procedures were previously approved by the Animal Ethics Commission of Instituto Adolfo Lutz.
as §1
The EC50 values for compounds 1–8 against intracellular amastigotes of T. cruzi were determined within infected macrophages. Macrophages, obtained as detailed in item 4.9, were seeded onto a 16-well chamber slide (NUNC plate, Thermo Fisher, Waltham, MA, USA) at a density of 1 × 10^5 cells per well. Subsequently, these cell cultures were incubated overnight at 37 °C in a humidified incubator containing 5% CO2. Trypomastigotes, previously derived from infected LLC-MK2 cells, underwent washing in an RPMI-1640 medium, were quantified, and were then employed to infect the macrophages at a concentration of 1 × 10^6 trypomastigotes per well. Following a 2 h infection period, any non-internalized trypomastigotes were eliminated by rinsing with an RPMI medium. The compounds were subsequently exposed to the infected macrophages for 48 h at 37 °C within a 5% CO2 environment. A range of serial dilutions (ranging from 30.00 to 1.87 μM) were used for the incubation of compounds, and benznidazole was utilized as the standard drug. At the final stage of the experiment, the chamber slides were fixed using MeOH and stained with Giemsa before being assessed under a light microscope (Thermo EVOS M5000).
as §2

[1] = Cytotoxicity against mammalian NCTC cells (MTT assay, 48 h); format: cell-based; details: mouse, NCTC murine fibroblasts, highest tested concentration 200 μM, read-out: NCTC Mammalian Cell CC50 (μM) ± SD
Description: as §1
The determination of CC50 (50% cytotoxic concentration) values for compounds 1–8 was conducted using NCTC cells (L929 clone). These cells were seeded at a density of 6 × 10^4 cells per well in 96-well plates (Thermo Fisher). The cells were then exposed to a series of compound dilutions, ranging from 200 to 1.56 µM, and incubated for 48 h at 37 °C within a 5% CO2-equipped incubator. The viability of the cells and CC50 values were determined using 3-(4,5-dimethylthiazol-2-yl)-2,5-diphenyltetrazolium bromide (MTT) assay. Subsequently, the absorbance was measured at 570 nm using the FilterMax F5 instrument from Molecular Devices. The selectivity index (SI) was determined as the ratio between the CC50 against NCTC cells and the EC50 against trypomastigotes or amastigotes.
as §2

[2] = intracellular amastigotes in BALB/c peritoneal macrophages, serial dilutions 30.00 to 1.87 μM
[3] = NCTC cells (clone L929) fibroblasts

Structure (SMILES)	EC50 (T. cruzi trypomastigote) [µM]	T. cruzi Amastigote EC50 (μM) ± SD (T. cruzi amastigote; [2])	CC50 at 48 h [1, 3] [µM]	EC50 (T. cruzi amastigote; [2]) [µM]	CC50 at 48 h [1] [µM]	T. cruzi Trypomastigote EC50 (μM) ± SD (T. cruzi trypomastigote)	EC50 (T. cruzi amastigote) [µM]
COC1C[C@@H](CC[C@@H]2[C@@H](C)CC=C3C(CO)(CO)CCC[C@@]32C)CO1 (relative stereo) [Compound 1, 15,16-epoxy-18,19-dihydroxy-16-methoxy-syn-labd-5-ene]	20.1 ± 1.5	inactive	> 200				
O=C(Cn1ccnc1[N+](=O)[O-])NCc1ccccc1 [Benznidazole, benznidazole, reference compound]	18.7 ± 4.1		> 200	5.5 ± 2.2			
C[C@H]1CC=C2C(CO)(CO)CCC[C@]2(C)[C@@H]1CC[C@H](CCO)COC(=O)/C=C/c1ccc(O)cc1 [Compound 2, gaudichaudol C]	2.9 ± 1.5	inactive	> 200				
C=C1C[C@@]23CC[C@H]4[C@@](C)(CCC[C@@]4(C)C(=O)O)[C@@H]2CC[C@@H]1C3 [Compound 3, Ent-kaur-16-en-19-oic acid]	10.6 ± 4.4	inactive			> 200		
COc1c(O)cc2oc(-c3ccc(O)cc3)cc(=O)c2c1O [Compound 4, Hispidulin]					> 200	no activity	12.8 ± 0.3
COc1c(O)cc2oc(-c3ccc(O)c(O)c3)cc(=O)c2c1O [Compound 5, Eupafolin]				2.7 ± 0.2		no activity	
